{"source": "paper PMC4738305", "about": "“Metabolism and Disposition of Aditoprim in Swine, Broilers, Carp and Rats” (Scientific Reports, 2016)", "key": {"[1]": {"test": "Tissue distribution and elimination of total radioactivity (total residues) after oral ^3H-ADP for 7 d", "type": "in vivo, swine", "description": "(§1) (0.1 Ci/g) through oral gavage for 7 consecutive days. All the animals were housed on the basis of their group in the cages or aquaria throughout the whole study period. A group of animals was slaughtered through exsanguination under diethyl ether inhalation of anesthesia in the period of 6 h, 1, 3, 7, 14, and 21 d after the administration. The blood samples were immediately collected into the heparinized tubes and was centrifuged at 1920 × g at 4 °C for 10 min to obtain the plasma. The tissues from the heart, liver, spleen, lung, kidney, craw (broilers), stomach, intestine, fat, skin, muscle, thymus, pancreas, bile, bladder, hair (scale for carp), genital gland, adrenal glands, swim bladder (carp), brain, lymph, and bursa (broilers) were carefully excised and collected. The tissues were thoroughly rinsed with the deionized water to remove the residuary blood, blotted to dryness, and finally to perform the homogenization. In order to avoid cross-contamination the dissecting instruments were washed during the tissue procurements. The blank tissues were collected in order to provide control matrices. The total radioactivity levels in each sample were determined through LSC. The samples extracted from the plasma, bile, and tissues of the liver, kidney, muscle, and fat/skin were analyzed through LC/MS-IT-TOF and v. ARC radiometric detection for metabolite profiling.\n(§2) Measurements of the total radioactivity in each sample were conducted by Packard Tri-Carb 2900 TR liquid scintillation counter (PerkinElmer Life and Analytical Sciences). The detection time was 10 min for two cycles. The scintillation counter data were automatically corrected for counting efficiency by instrument-stored quench curve which was drawn with a series of sealed quenched […] standards. The actual radioactivity of each sample was calculated by subtracting the background value form the mean radioactivity in two blank samples. All the samples were analyzed in duplicate if the sample size allowed this. If the results were differed by more than 10% from the mean value, the samples were reanalyzed. The samples with LSC counts less than 2-fold of the level of the running background were considered to contain insufficient radioactivity for reliable quantification.\n(§3) Aliquots of liquid samples (urine, plasma, bile and raised water, 200 μL) were mixed with 10 mL of Ultima Gold^TM scintillation fluid for the direct analysis by LSC. Aliquots of solid samples (feces and tissues, 200 mg) were digested overnight with 2 mL tissue solubilizer at 50 °C in a shaking water bath, followed by adding 200 μL of 0.1 mol/L EDTA-Na and 200 μL of 30% H2O2, and was bathed at 50 °C for 2 h to bleach. The obtained transparent liquid were mixed with 10 mL of scintillation fluid and finally were counted by LSC. The digestion efficiency was determined by using the blank samples spiked with ^3 H standard for digestion, and the measured radioactivity content in the digested samples were adjusted by using the digestion efficiency values.\n(§4) The concentrations of ADP and/or its metabolites were analyzed by using the following equation: C = L/(2.22 × 10^9 × RM), where C is the concentration of ADP or/and its metabolites (mg/kg), L is the LSC count (dpm), R is the specific activity of the administered dose (0.1 Ci/g), and M is the weight or volume of samples (kg or L). The results are expressed as mean ± SD. The elimination kinetics of terminal phase for ADP and its metabolites were conducted by using the WinNonlin linear regression program (Pharsight corporation, Statistical consultants, Inc., Kentucky, USA)."}, "[2]": {"test": "Tissue distribution and elimination of total radioactivity (total residues) after oral ^3H-ADP for 7 d", "type": "in vivo", "details": "rats, 5 mg/kg b.w. 7 days", "description": "as §1, §2, §3, §4"}}, "data": [{"smiles": "[3H]c1c(Cc2cnc(N)nc2N)cc(OC)c(N(C)C)c1OC", "note": "[^3H-ADP]", "values": [{"measurement": "Ke of total residues", "setting": "[1]; swine Adrenal", "result": 0.28}, {"measurement": "Ke of total residues", "setting": "[1]; swine Bile", "result": 0.71}, {"measurement": "Ke of total residues", "setting": "[1]; swine Bladder", "result": 0.50}, {"measurement": "Ke of total residues", "setting": "[1]; swine Blood", "result": 0.48}, {"measurement": "Ke of total residues", "setting": "[1]; swine Clothing hair", "result": 0.17}, {"measurement": "Ke of total residues", "setting": "[1]; swine Fat", "result": 0.20}, {"measurement": "Ke of total residues", "setting": "[1]; swine Heart", "result": 0.29}, {"measurement": "Ke of total residues", "setting": "[1]; swine Kidney", "result": 0.21}, {"measurement": "Ke of total residues", "setting": "[1]; swine Large Intestine", "result": 0.47}, {"measurement": "Ke of total residues", "setting": "[1]; swine Liver", "result": 0.16}, {"measurement": "Ke of total residues", "setting": "[1]; swine Lung", "result": 0.28}, {"measurement": "Ke of total residues", "setting": "[1]; swine Lymph", "result": 0.46}, {"measurement": "Ke of total residues", "setting": "[1]; swine Muscle", "result": 0.41}, {"measurement": "Ke of total residues", "setting": "[1]; swine Pancreas", "result": 0.27}, {"measurement": "Ke of total residues", "setting": "[1]; swine Skin", "result": 0.42}, {"measurement": "Ke of total residues", "setting": "[1]; swine Small Intestine", "result": 0.54}, {"measurement": "Ke of total residues", "setting": "[1]; swine Spleen", "result": 0.20}, {"measurement": "Ke of total residues", "setting": "[1]; swine Stomach", "result": 0.52}, {"measurement": "Ke of total residues", "setting": "[1]; swine Thymus", "result": 0.37}, {"measurement": "Elimination kinetics Ke", "setting": "[2]; Adrenal", "result": 0.28}, {"measurement": "Elimination kinetics Ke", "setting": "[2]; Bladder", "result": 0.56}, {"measurement": "Elimination kinetics t1/2", "setting": "[2]; Bladder", "result": 29.5, "unit": "h"}, {"measurement": "Elimination kinetics Ke", "setting": "[2]; Blood", "result": 0.22}, {"measurement": "Elimination kinetics t1/2", "setting": "[2]; Blood", "result": 75.4, "unit": "h"}, {"measurement": "Elimination kinetics Ke", "setting": "[2]; Brain", "result": 0.26}, {"measurement": "Elimination kinetics t1/2", "setting": "[2]; Brain", "result": 64.6, "unit": "h"}, {"measurement": "Elimination kinetics Ke", "setting": "[2]; Fat", "result": 0.26}, {"measurement": "Elimination kinetics Ke", "setting": "[2]; Gonades", "result": 0.40}, {"measurement": "Elimination kinetics t1/2", "setting": "[2]; Gonades", "result": 41.5, "unit": "h"}, {"measurement": "Elimination kinetics Ke", "setting": "[2]; Heart", "result": 0.24}, {"measurement": "Elimination kinetics t1/2", "setting": "[2]; Heart", "result": 70.8, "unit": "h"}, {"measurement": "Elimination kinetics Ke", "setting": "[2]; Kidney", "result": 0.21}, {"measurement": "Elimination kinetics Ke", "setting": "[2]; Large Intestine", "result": 0.40}, {"measurement": "Elimination kinetics t1/2", "setting": "[2]; Large Intestine", "result": 41.3, "unit": "h"}, {"measurement": "Elimination kinetics Ke", "setting": "[2]; Liver", "result": 0.18}, {"measurement": "Elimination kinetics Ke", "setting": "[2]; Lung", "result": 0.24}, {"measurement": "Elimination kinetics t1/2", "setting": "[2]; Lung", "result": 69.1, "unit": "h"}, {"measurement": "Elimination kinetics Ke", "setting": "[2]; Muscle", "result": 0.25}, {"measurement": "Elimination kinetics Ke", "setting": "[2]; Pancreas", "result": 0.26}, {"measurement": "Elimination kinetics t1/2", "setting": "[2]; Pancreas", "result": 63.6, "unit": "h"}, {"measurement": "Elimination kinetics Ke", "setting": "[2]; Skin", "result": 0.19}, {"measurement": "Elimination kinetics t1/2", "setting": "[2]; Skin", "result": 86.2, "unit": "h"}, {"measurement": "Elimination kinetics Ke", "setting": "[2]; Small Intestine", "result": 0.36}, {"measurement": "Elimination kinetics t1/2", "setting": "[2]; Small Intestine", "result": 46.3, "unit": "h"}, {"measurement": "Elimination kinetics Ke", "setting": "[2]; Spleen", "result": 0.24}, {"measurement": "Elimination kinetics t1/2", "setting": "[2]; Spleen", "result": 69.4, "unit": "h"}, {"measurement": "Elimination kinetics Ke", "setting": "[2]; Stomach", "result": 0.27}, {"measurement": "Elimination kinetics t1/2", "setting": "[2]; Stomach", "result": 62.6, "unit": "h"}, {"measurement": "Elimination kinetics Ke", "setting": "[2]; Thymus", "result": 0.35}, {"measurement": "Elimination kinetics t1/2", "setting": "[2]; Thymus", "result": 48.2, "unit": "h"}]}]}
